What was measured:
[1] = test system: HIV-1 (HTLV-IIIB strain); test: Inhibitory activity for HIV-induced cytopathogenicity (MT-4 cells, MTT method); assay type: cell-based; conditions: Human immunodeficiency virus 1, IIIB, MT4, 144 h, read-out: 50% inhibitory concentration of HIV infection
Description: (§1) In RPMI 1640 culture medium supplemented with 10% heat-inactivated fetal bovine serum, 2 mM of L-glutamine, 100 U/mL of penicillin G and 100 μg/mL of streptomycin, MT-4 cells (HTLV-1 transformed T4-cell line) at a concentration of 1×10^4 /well in a flat-bottom, microtiter plate were infected with 500 TCID50 of HIV-1 (HTLV-IIIB strain). Immediately after virus infection, sample serially diluted with culture medium from stock solution prepared in dimethyl sulfoxide was added to each well in quadriplicate. After 6 days incubation at 37° C., the viability of mock and HIV-infected cells was determined by the 3-(4,5-dimethylthiazol-2-yl)-2,5-diphenyltetrazolium bromide (MTT) method. And also, the cytotoxicity of sample to MT-4 cells not infected with HIV was assessed in parallel with its antiviral activity under the same way as above.

[2] = Cytotoxicity to MT-4 cells not infected with HIV (MTT method); assay type: cell-based; conditions: human; MT-4 cells not infected with HIV, 6 days, 37° C., MTT; read-out: 50% cytotoxic concentration to MT-4 cells
Description: as §1

Row | Compound | IC50 [1] [nM] | CC50 at 144 h [2] [µM]
1 | CCc1c([Se]c2cc(C)cc(C)c2)n(COCCO)c(=O)[nH]c1=O [Compound 9, 6-[(3,5-dimethylphenyl)selenenyl]-5-ethyl-1-[(2-hydroxyethoxy)-methyl]uracil] | 15 | 34.5
2 | CCOCn1c([Se]c2cc(C)cc(C)c2)c(CC)c(=O)[nH]c1=S [Compound 17, 6-[(3,5-dimethylphenyl)selenenyl]-1-(ethoxymethyl)-5-ethyl-2-thiouracil] | 8 | 28.8
3 | CCOCn1c([Se]c2cc(C)cc(C)c2)c(C(C)C)c(=O)[nH]c1=S [Compound 24, 6-[(3,5-dimethylphenyl)selenenyl]-1-(ethoxymethyl)-5-isopropyl-2-thiouracil] | 1.6 | 31.7
4 | CCOCn1c([Se]c2cc(F)cc(F)c2)c(C(C)C)c(=O)[nH]c1=S [Compound 25, 6-[(3,5-difluorophenyl)selenenyl]-1-(ethoxymethyl)-5-isopropyl-2-thiouracil] | 27 | 19.7
5 | CCOCn1c([Se]c2cccc(C)c2)c(CC)c(=O)[nH]c1=O [Compound 29, 1-(ethoxymethyl)-5-ethyl-6-[(3-methylphenyl)selenenyl]uracil] | 4 | 32.1
6 | CC(C)c1c([Se]c2ccccc2)n(CCCc2ccccc2)c(=O)[nH]c1=O [Compound 84, 5-isopropyl-1-(3-phenylpropyl)-6-(phenylselenenyl)uracil] | 8 | 28
7 | Cc1cc(C)cc([Se]c2c(C(C)C)c(=O)[nH]c(=O)n2COCc2ccccc2)c1 [Compound 54, 1-[(benzyloxy)methyl]-6-[(3,5-dimethylphenyl)selenenyl]-5-isopropyluracil] | 0.021 | 30.2
8 | CCOCn1c([Se]c2cccc(C)c2)c(C(C)C)c(=O)[nH]c1=S [Compound 23, 1-(ethoxymethyl)-5-isopropyl-6-[(3-methylphenyl)selenenyl]-2-thiouracil] | 3.6 | 30.6
9 | Cc1cccc([Se]c2c(C(C)C)c(=O)[nH]c(=S)n2COCc2ccccc2)c1 [Compound 27, 1-[(benzyloxy)methyl]-5-isopropyl-6-[(3-methylphenyl)selenenyl]-2-thiouracil] | 1.1 | 30
10 | CCc1c([Se]c2ccccc2)n(CCCc2ccccc2)c(=O)[nH]c1=O [Compound 73, 5-ethyl-1-(3-phenylpropyl)-6-(phenylselenenyl)uracil] | 3 | 26.1
11 | CCOCn1c([Se]c2cccc(C)c2)c(CC)c(=O)[nH]c1=S [Compound 16, 1-(ethoxymethyl)-5-ethyl-6-[(3-methylphenyl)selenenyl]-2-thiouracil] | 8 | 24.8
12 | CCc1c([Se]c2cc(C)cc(C)c2)n(COCc2ccccc2)c(=O)[nH]c1=O [Compound 38, 1-[(benzyloxy)methyl]-6-[(3,5-dimethylphenyl)selenenyl]-5-ethyluracil] | 0.08 | 31.7
13 | CCCCn1c([Se]c2ccccc2)c(C(C)C)c(=O)[nH]c1=O [Compound 81, 1-butyl-5-isopropyl-6-(phenylselenenyl)uracil] | 2 | 27.1
14 | Cc1cc(C)cc([Se]c2c(C(C)C)c(=O)[nH]c(=S)n2COCCO)c1 [Compound 6, 6-[(3,5-dimethylphenyl)selenenyl]-1-[(2-hydroxyethoxy)methyl]-5-isopropyl-2-thiouracil] | 8 | 32.4
15 | CCOCn1c([Se]c2cc(F)cc(F)c2)c(C(C)C)c(=O)[nH]c1=O [Compound 51, 6-[(3,5-difluorophenyl)selenenyl]-1-(ethoxymethyl)-5-isopropyluracil] | 1.2 | 27.5
16 | CCc1c([Se]c2cccc(C)c2)n(COCc2ccccc2)c(=O)[nH]c1=O [Compound 37, 1-[(benzyloxy)methyl]-5-ethyl-6-[(3-methylphenyl)selenenyl]uracil] | 0.21 | 28.8
17 | CCOCn1c([Se]c2ccccc2)c(CC)c(=O)[nH]c1=S [Compound 15, 1-(ethoxymethyl)-5-ethyl-6-(phenylselenenyl)-2-thiouracil] | 24 | 26.1
18 | Cc1cccc([Se]c2c(C(C)C)c(=O)[nH]c(=O)n2COCc2ccccc2)c1 [Compound 53, 1-[(benzyloxy)methyl]-5-isopropyl-6-[(3-methylphenyl)selenenyl]uracil] | 0.07 | 30.8
19 | Cc1cc(C)cc([Se]c2c(C(C)C)c(=O)[nH]c(=O)n2CCCc2ccccc2)c1 [Compound 86, 6-[(3,5-dimethylphenyl)selenenyl]-5-isopropyl-1-(3-phenylpropyl)-uracil] | 0.6 | 26.9

Row | Compound | IC50 [1] [nM] | CC50 at 144 h [2] [µM]
20 | CCOCn1c([Se]c2cc(F)cc(F)c2)c(CC)c(=O)[nH]c1=S [Compound 18, 6-[(3,5-difluorophenyl)selenenyl]-1-(ethoxymethyl)-5-ethyl-2-thiouracil] | 14 | 7.8
21 | CCc1c([Se]c2ccccc2)n(COCc2ccccc2)c(=S)[nH]c1=O [Compound 19, 1-[(benzyloxy)methyl)-5-ethyl-6-(phenylselenenyl)-2-thiouracil] | 4 | 25.1
22 | CCc1c([Se]c2cccc(C)c2)n(COCCO)c(=S)[nH]c1=O [Compound 2, 5-ethyl-1-[(2-hydroxyethoxy)methyl]-6-[(3-methylphenyl)selenenyl]-2-thiouracil] | 40 | 32
23 | CCc1c([Se]c2cccc(C)c2)n(COCc2ccccc2)c(=S)[nH]c1=O [Compound 20, 1-[(benzyloxy)methyl]-5-ethyl-6-[(3-methylphenyl)selenenyl]-2-thiouracil] | 0.8 | 43.4
24 | CCc1c([Se]c2cc(C)cc(C)c2)n(CCCc2ccccc2)c(=O)[nH]c1=O [Compound 74, 6-[(3,5-dimethylphenyl)selenenyl]-5-ethyl-1-(3-phenylpropyl)-uracil] | 8 | 27.7
25 | CCOCn1c([Se]c2cc(F)cc(F)c2)c(CC)c(=O)[nH]c1=O [Compound 32, 6-[(3,5-difluorophenyl)selenenyl]-1-(ethoxymethyl)-5-ethyluracil] | 6 | 30.6
26 | CCOCn1c([Se]c2cc(C)cc(C)c2)c(CC)c(=O)[nH]c1=O [Compound 30, 6-[(3,5-dimethylphenyl)selenenyl]-1-(ethoxymethyl)-5-etlyluracil] | 0.6 | 28.9
27 | CC(C)c1c([Se]c2ccccc2)n(COCc2ccccc2)c(=S)[nH]c1=O [Compound 26, 1-[(benzyloxy)methyl]-5-isopropyl-6-(phenylselenenyl)-2-thiouracil] | 0.7 | 30.2
28 | CCc1c([Se]c2cc(C)cc(C)c2)n(COCCO)c(=S)[nH]c1=O [Compound 3, 6-[(3,5-dimethylphenyl)selenenyl]-5-ethyl-1-[(2-hydroxyethoxy)methyl]-2-thiouracil] | 30 | 32.5
29 | CCOCn1c([Se]c2ccccc2)c(C(C)C)c(=O)[nH]c1=S [Compound 22, 1-(ethoxymethyl)-5-isopropyl-6-(phenylselenenyl)-2-thiouracil] | 1.5 | 30.1
30 | CCCCn1c([Se]c2ccccc2)c(CC)c(=O)[nH]c1=O [Compound 64, 1-butyl-5-ethyl-6-(phenylselenenyl)uracil] | 40 | 27.3
31 | CCc1c([Se]c2cc(C)cc(C)c2)n(COCc2ccccc2)c(=S)[nH]c1=O [Compound 21, 1-[(benzyloxy)methyl]-6-[(3,5-dimethylphenyl)selenenyl]-5-ethyl-2-thiouracil] | 1.7 | 24.1
32 | Cc1cccc([Se]c2c(C(C)C)c(=O)[nH]c(=S)n2COCCO)c1 [Compound 5, 1-[(2-hydroxyethoxy)methyl]-5-isopropyl-6-[(3-methylphenyl)-selenenyl]-2-thiouracil] | 38 | 31.7
33 | CCOCn1c([Se]c2cc(C)cc(C)c2)c(C(C)C)c(=O)[nH]c1=O [Compound 50, 6-[(3,5-dimethylphenyl)selenenyl]-1-(ethoxymethyl)-5-isopropyluracil] | 0.07 | 29.2
34 | CC(C)c1c([Se]c2ccccc2)n(COCc2ccccc2)c(=O)[nH]c1=O [Compound 52, 1-[(benzyloxy)methyl]-5-isopropyl-6-(phenylselenenyl)uracil] | 0.1 | 29.4
35 | CCCCn1c([Se]c2cc(C)cc(C)c2)c(C(C)C)c(=O)[nH]c1=O [Compound 83, 1-butyl-6-[(3,5-dimethylphenyl)selenenyl]-5-isopropyluracil] | 2 | 28.2
36 | CCOCn1c([Se]c2ccccc2)c(C(C)C)c(=O)[nH]c1=O [Compound 48, 1-(ethoxymethyl)-5-isopropyl-6-(phenylselenenyl)uracil] | 4.2 | 32.5
37 | Cc1cc(C)cc([Se]c2c(C(C)C)c(=O)[nH]c(=O)n2COCCO)c1 [Compound 12, 6-[(3,5-dimethylphenyl)selenenyl]-1-[(2-hydroxyethoxy)methyl]-5-isopropyluracil] | 1.9 | 29.1
38 | CCCCn1c([Se]c2cc(C)cc(C)c2)c(CC)c(=O)[nH]c1=O [Compound 65, 1-butyl-6-[(3,5-dimethylphenyl)selenenyl]-5-ethyluracil] | 3 | 27.9

From patent publication US5889013A, “Pyrimidine acyclonucleoside derivatives” (priority 1994, dated 1999)
